Values joined by “and” are separate entries in the source; they are usually repeats but may differ in a detail not shown here. Identical values can stand only once.

The source of these data is US10076576B2, “Minimally toxic prodrugs” (priority 2012, dated 2018).

For one series, the target named is T1, FAP (Homo sapiens, UniProt Q12884).
T1 sequence (Q12884 1-760): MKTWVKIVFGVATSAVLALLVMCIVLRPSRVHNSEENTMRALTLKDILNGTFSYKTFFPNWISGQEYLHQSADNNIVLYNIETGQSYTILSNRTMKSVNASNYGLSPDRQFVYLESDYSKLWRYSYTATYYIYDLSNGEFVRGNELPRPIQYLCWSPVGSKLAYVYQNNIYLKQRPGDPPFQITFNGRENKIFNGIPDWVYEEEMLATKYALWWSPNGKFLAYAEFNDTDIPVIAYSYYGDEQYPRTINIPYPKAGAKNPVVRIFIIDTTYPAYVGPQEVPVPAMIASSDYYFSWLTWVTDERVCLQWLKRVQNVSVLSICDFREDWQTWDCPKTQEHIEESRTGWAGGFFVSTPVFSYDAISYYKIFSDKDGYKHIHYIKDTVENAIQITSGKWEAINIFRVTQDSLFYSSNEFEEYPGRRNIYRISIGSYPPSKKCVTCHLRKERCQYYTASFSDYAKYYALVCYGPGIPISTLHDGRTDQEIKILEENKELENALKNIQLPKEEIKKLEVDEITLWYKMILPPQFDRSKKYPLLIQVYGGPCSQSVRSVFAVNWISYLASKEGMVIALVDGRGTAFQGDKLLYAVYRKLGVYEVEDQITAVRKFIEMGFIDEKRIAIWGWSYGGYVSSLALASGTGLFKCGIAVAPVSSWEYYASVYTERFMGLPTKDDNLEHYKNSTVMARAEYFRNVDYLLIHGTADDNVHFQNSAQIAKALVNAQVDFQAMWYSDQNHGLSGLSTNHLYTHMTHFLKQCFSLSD
The experiment in a line: Reactivation assay with purified FAP. Format: biochemical. The settings on record: 3 h incubation at 37° C. Here is the method: (§1) TOP (recombinant human thimet oligopeptidase, R&D systems, Ref 3439-ZN) was diluted at 10 nM in a solution of 50 mM Tris-HCl pH 7.4/0.5M NaCl/0.1M DTT. CD26 and FAP were diluted at 1 μg/mL in a Tris-HCl pH 7.5 buffer. Reactions were initiated by addition of 50 μM of each compound to enzymes solutions (1 V enzyme solution+1 V 100 μM drug solution). Samples were incubated for 0, 1, or 3 hours at 37° C. in a water bath in the presence of purified enzymes. Fifty μL of sample were collected at each time point and processed as described above for human plasma. Activation of Suc-βALAL-dox was tested in parallel as a reference.

For the next series, the target named is CD26 (Homo sapiens, UniProt P27487). The experiment in a line: Reactivation assay with purified CD26. To be noted: 3 h incubation at 37° C. Format: biochemical. The protocol: as §1
Chain of CD26 (P27487 whole entry): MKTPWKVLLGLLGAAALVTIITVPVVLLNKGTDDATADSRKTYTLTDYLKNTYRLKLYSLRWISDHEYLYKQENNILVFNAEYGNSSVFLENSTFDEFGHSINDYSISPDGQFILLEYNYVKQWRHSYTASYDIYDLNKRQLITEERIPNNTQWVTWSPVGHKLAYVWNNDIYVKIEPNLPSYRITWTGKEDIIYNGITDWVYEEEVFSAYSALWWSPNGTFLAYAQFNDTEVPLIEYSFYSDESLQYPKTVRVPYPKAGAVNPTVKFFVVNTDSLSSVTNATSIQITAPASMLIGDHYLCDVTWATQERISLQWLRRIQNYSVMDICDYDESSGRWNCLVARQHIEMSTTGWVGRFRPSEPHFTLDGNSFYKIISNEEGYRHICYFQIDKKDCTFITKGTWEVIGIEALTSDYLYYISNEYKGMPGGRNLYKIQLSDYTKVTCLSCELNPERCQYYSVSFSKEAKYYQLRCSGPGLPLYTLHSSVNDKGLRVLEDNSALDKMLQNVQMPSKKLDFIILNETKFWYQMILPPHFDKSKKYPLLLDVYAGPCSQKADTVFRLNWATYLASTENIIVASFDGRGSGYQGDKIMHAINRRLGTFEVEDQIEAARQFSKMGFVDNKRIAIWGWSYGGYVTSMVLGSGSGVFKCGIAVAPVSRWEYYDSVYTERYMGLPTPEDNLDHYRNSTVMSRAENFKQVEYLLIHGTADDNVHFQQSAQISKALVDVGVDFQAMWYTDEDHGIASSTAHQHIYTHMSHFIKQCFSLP
The next series relates to tumor cell lines. The settings on record: cited from earlier work.
In series [1] the target is T2, TOP (recombinant human thimet oligopeptidase) (Homo sapiens, UniProt P52888).
T2 construct: purchased R&D systems 3439-ZN
T2 sequence (P52888 whole entry): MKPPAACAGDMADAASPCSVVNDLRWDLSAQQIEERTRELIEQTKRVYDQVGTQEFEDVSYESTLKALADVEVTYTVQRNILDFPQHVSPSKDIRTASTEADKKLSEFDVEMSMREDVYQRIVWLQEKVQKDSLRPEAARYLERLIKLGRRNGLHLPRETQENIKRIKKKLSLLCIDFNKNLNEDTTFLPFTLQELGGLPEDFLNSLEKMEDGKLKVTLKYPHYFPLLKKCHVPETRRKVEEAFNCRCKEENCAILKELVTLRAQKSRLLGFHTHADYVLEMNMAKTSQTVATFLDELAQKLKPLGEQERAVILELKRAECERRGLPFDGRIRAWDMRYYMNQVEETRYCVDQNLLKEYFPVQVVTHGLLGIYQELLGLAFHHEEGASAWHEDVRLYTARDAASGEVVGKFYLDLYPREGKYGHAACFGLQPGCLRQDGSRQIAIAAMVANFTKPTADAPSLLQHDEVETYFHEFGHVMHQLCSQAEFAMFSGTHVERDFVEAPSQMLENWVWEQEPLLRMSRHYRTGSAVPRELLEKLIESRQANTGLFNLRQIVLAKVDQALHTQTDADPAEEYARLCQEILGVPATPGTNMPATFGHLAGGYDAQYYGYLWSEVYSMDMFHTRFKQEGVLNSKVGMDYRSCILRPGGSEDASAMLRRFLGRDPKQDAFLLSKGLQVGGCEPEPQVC
The experiment in a line: Reactivation assay with purified TOP. Format: biochemical. To be noted: 3 h at 37° C.; for % Metabolites released after 3 h (TOP 5 nM) / TOP 5 nM (cleavage +/−): 50 μM compound. Here is the method: as §1

Series [2] concerns LS-174T tumor cell secreted peptidases. The experiment in a line: Reactivation assay in LS174T tumor cell conditioned medium. Format: biochemical, human. The settings on record: for activation by tumor cell secreted enzymes (in words): LS174T tumor cell conditioned medium. The protocol:
Sub-confluent cultures of LS-174T tumor cells were washed twice with a saline phosphate buffer solution, and fresh culture medium (DMEM-F12 without phenol red) containing 0.02% bovine serum albumin is added (100 μl/cm^2). After 24 hours incubation, the conditioned medium is collected, centrifuged for 10 minutes at 300 g, buffered with 1 M Tris-HCl, pH 7.4 (1 volume of buffer+19 volumes of medium) and concentrated 20 times by […] (cutoff threshold of 10 kDa).
Drug compounds (50 μM) were incubated for 0, 1, 3 or 5 hours at 37° C. in the presence of freshly prepared LS174T tumor cell conditioned medium. Fifty μL of sample were collected at each time point and processed as described above for human plasma.

The nature of series [3]: Stability in citrated human blood. To be noted: 5 hours incubation at 37° C. in citrated human blood, 50 μM.
The nature of series [4]: Stability in citrated human plasma. To be noted: 5 hours incubation at 37° C. in citrated human plasma (pH7), 50 μM. Here is the method:
The drug conjugates (50 μM) were mixed with human plasma and incubated for 5 hours at 37° C. in a water bath. […] Supernatant was collected.

For series [5], the target named is T3, CD10 (recombinant human neprilysin) (Homo sapiens, UniProt P08473).
T3 construct: purchased R&D systems 1182-ZN
T3 sequence (P08473 52-750 limits assumed): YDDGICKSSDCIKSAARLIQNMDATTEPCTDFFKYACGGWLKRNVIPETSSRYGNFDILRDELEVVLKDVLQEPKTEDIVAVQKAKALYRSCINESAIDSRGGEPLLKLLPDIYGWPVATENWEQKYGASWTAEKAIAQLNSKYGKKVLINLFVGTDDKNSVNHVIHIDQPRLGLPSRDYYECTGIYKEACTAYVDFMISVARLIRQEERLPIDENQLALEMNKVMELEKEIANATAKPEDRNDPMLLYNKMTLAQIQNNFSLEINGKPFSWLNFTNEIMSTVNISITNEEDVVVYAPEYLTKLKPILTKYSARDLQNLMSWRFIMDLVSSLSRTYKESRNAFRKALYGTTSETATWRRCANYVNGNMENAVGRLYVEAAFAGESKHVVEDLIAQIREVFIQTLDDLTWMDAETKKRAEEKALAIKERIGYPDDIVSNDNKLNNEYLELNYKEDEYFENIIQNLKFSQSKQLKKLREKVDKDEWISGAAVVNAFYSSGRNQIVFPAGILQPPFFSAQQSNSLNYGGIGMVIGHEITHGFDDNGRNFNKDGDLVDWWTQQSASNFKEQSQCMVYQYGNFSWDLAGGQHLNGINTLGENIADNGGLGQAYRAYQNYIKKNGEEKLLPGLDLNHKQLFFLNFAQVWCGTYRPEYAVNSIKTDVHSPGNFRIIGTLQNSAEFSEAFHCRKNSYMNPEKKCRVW
The series is described as follows: Reactivation assay with purified CD10. Format: biochemical. The settings on record: 3 h at 37° C.; for % Metabolites released after 3 h (CD10 10 nM) / CD10 10 nM (cleavage +/−): 50 μM compound.

Series [6] is described as follows: In vivo toxicity after single iv bolus injection (body weight). Details: species or system OF-1 mice. The protocol: FIG. 1. Effect of PhAc-peptide-Dox conjugates on the body weight of OF-1 normal mice (n=4). […] Results represent the mean body weight evolution.
The in vivo toxicity was evaluated by monitoring body weight.

For series [7], the target named is dihydrofolate reductase (DHFR) (Homo sapiens, UniProt P00374). The settings on record: cited from earlier work.
Chain of dihydrofolate reductase (DHFR) (P00374 whole entry, species assumed): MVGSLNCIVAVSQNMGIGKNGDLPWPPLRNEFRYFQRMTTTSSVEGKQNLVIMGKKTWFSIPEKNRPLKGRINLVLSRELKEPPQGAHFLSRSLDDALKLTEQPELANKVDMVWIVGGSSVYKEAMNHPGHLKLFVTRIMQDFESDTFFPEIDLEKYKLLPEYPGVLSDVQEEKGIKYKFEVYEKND

In the case of `COc1cccc2c1C(=O)c1c(O)c3c(c(O)c1C2=O)C[C@@](O)(C(=O)CO)C[C@@H]3O[C@H]1C[C@H](NC(=O)[C@@H]2CCCN2C(=O)CN)[C@H](O)[C@H](C)O1` [GP-Dox, NH2-Gly-Pro-Doxorubicin], in the series with FAP, the “conversion to Dox by FAP” value amounted to 62%. Moreover, the “conversion to Dox by CD26” value with CD26 stood at 97%.

For `COc1cc2cc(c1Cl)N(C)C(=O)C[C@H](OC(=O)[C@H](C)N(C)C(C)=O)[C@]1(C)O[C@H]1[C@H](C)[C@@H]1C[C@@](O)(NC(=O)O1)[C@H](OC)/C=C/C=C(\C)C2` [Maytansine], in the series with tumor cell lines, the “fold higher cytotoxicity than the Vinca alkaloids” value was “about 100 fold” and the “fold higher toxicity than doxorubicin” value is listed as “about 1000 fold”.

As for `COc1cccc2c1C(=O)c1c(O)c3c(c(O)c1C2=O)CC(O)(C(=O)CO)CC3OC1CC(NC(=O)C(Cc2ccccc2)NC(=O)C(C)NC(=O)C(CC(C)C)NC(=O)C(C)NC(=O)CP(=O)(O)O)C(O)C(C)O1` (stereo not shown) [PhAc-ALAF-Dox, PhAc-ALAF-doxorubicin], in series [1], the “% Metabolites released after 3 h (TOP 5 nM)” value is reported as under 5% and the “TOP 5 nM (cleavage +/−)” value is reported as “−* (*less than 5% of metabolites detected)”. The “% Metabolites released after 5 h (LS174T CM20xcc)” value (shortened to “% Metabolites released after 5 h”) in [2] (5 h at 37° C., 50 μM compound) is given as 32 ± 15%. The “activation by tumor cell secreted enzymes (in words)” value (from here on “activation … (in words)”) in series [2] is “activated into F-Dox”. In addition, in [3], the “% metabolites released: Dox” value is listed as 5%, the “% metabolites released: F-Dox” value was 5% and the total % metabolites stood at 10%. In addition, in series [4], the “% metabolites released: Dox” value is reported as 0%, the “% metabolites released: F-Dox” value stood at 2% and the total % metabolites is 2%. Moreover, in [5], the “cleavage by CD10 (in words)” value is recorded as “moderately cleaved” and the “% Metabolites released after 3 h (CD10 10 nM)” value is recorded as 24 ± 5%.

`COc1cccc2c1C(=O)c1c(O)c3c(c(O)c1C2=O)CC(O)(C(=O)CO)CC3OC1CC(NC(=O)C(CC(C)C)NC(=O)C(C)NC(=O)C(CC(C)C)NC(=O)C(C)NC(=O)CP(=O)(O)O)C(O)C(C)O1` (stereo not shown) [PhAc-ALAL-Dox, PhAc-ALAL-doxorubicin]: the “% Metabolites released after 3 h (TOP 5 nM)” value in [1] was 44% and 44 ± 6%. Further, the “% Metabolites released after 5 h” value in series [2] (5 h at 37° C., 50 μM compound) was 65 ± 19%. Also, the “activation … (in words)” value in series [2] is listed as “activated”. For the same molecule, in series [6] (80 μmol/kg single iv), the “body weight loss (in words)” value is given as “No significant body weight loss”. In addition, the “toxicity (in words)” value in series [6] (160 μmol/kg single iv) is reported as “high toxicity”. Moreover, in series [3], the “% metabolites released: AL-Dox” value was determined as 0%, the “% metabolites released: Dox” value is given as 9%, the “% metabolites released: L-dox” value came out at 6% and the total % metabolites worked out at 15%. Besides, in series [4], the “% metabolites released: AL-Dox” value turned out to be 0%, the “% metabolites released: Dox” value is recorded as under 1%, the “% metabolites released: L-dox” value amounted to 2% and the total % metabolites was 2%. In addition, in [5], the “cleavage by CD10 (in words)” value is reported as “not efficiently cleaved” and the “CD10 10 nM (cleavage +/−)” value is “−* (*less than 5% of metabolites detected)”.

For `COc1cccc2c1C(=O)c1c(O)c3c(c(O)c1C2=O)CC(O)(C(=O)CO)CC3OC1CC(NC(=O)C(Cc2ccccc2)NC(=O)C2CCCN2C(=O)C(CC(C)C)NC(=O)C(C)NC(=O)CP(=O)(O)O)C(O)C(C)O1` (stereo not shown) [PhAc-ALPF-Dox, PhAc-ALPF-doxorubicin], in series [1], the “% Metabolites released after 3 h (TOP 5 nM)” value is reported as under 5% and the “TOP 5 nM (cleavage +/−)” value is on record as “−* (*less than 5% of metabolites detected)”. The “% Metabolites released after 5 h” value in [2] (5 h at 37° C., 50 μM compound) stood at 11 ± 6%. Also, the “activation … (in words)” value in series [2] is on record as “activated into F-Dox”. In series [3], the “% metabolites released: Dox” value is given as 4%, the “% metabolites released: F-Dox” value stood at 1% and the total % metabolites is recorded as 5%. Moreover, in series [4], the “% metabolites released: Dox” value is given as 0%, the “% metabolites released: F-Dox” value is on record as 0% and the total % metabolites turned out to be 0%. Besides, the “% Metabolites released after 3 h (CD10 10 nM)” value in [5] turned out to be 0%.

As for Methotrexate, in series [7], the “affinity for DHFR relative to folate” value is on record as about 1000 fold.

On to PhAc-AIGP-doxorubicin, for which, in [1], the “cleavage by TOP (in words)” value is reported as “not cleaved”, the “% Metabolites released after 3 h (TOP 5 nM)” value is listed as under 5% and the “TOP 5 nM (cleavage +/−)” value is reported as “−* (*less than 5% of metabolites detected)”. Also, the “% Metabolites released after 5 h” value in [2] (5 h at 37° C., 50 μM compound) is 3 ± 3%. The “LS174T CM20xcc (activation +/−)” value in series [2] (5 h at 37° C., conditioned medium concentrated 20 times, 50 μM compound) is reported as “−* (*less than 5% of metabolites detected)”. Moreover, in [2], the “activation … (in words)” value is on record as “not activated”. In addition, in [5], the “% Metabolites released after 3 h (CD10 10 nM)” value was 18% and 18 ± 3%.

In the case of PhAc-DLGP-doxorubicin, in series [1], the “cleavage by TOP (in words)” value is on record as “not cleaved” and the “% Metabolites released after 3 h (TOP 5 nM)” value is reported as 0%. Besides, the “% Metabolites released after 5 h” value in series [2] (5 h at 37° C., 50 μM compound) was determined as 0%. The “activation … (in words)” value in [2] is reported as “not activated”. Moreover, in series [5], the “cleavage by CD10 (in words)” value is “not or very slightly activated” and the “% Metabolites released after 3 h (CD10 10 nM)” value is 0%.

Consider PhAc-GPGP-doxorubicin, for which, in series [1], the “cleavage by TOP (in words)” value is given as “not cleaved” and the “% Metabolites released after 3 h (TOP 5 nM)” value turned out to be 0%. Besides, in series [2] (5 h at 37° C., 50 μM compound), the “% Metabolites released after 5 h” value worked out at 0%. Besides, the “activation … (in words)” value in series [2] is given as “not activated”. Besides, in series [5], the “cleavage by CD10 (in words)” value is “not or very slightly activated” and the “% Metabolites released after 3 h (CD10 10 nM)” value turned out to be 0%.

Consider PhAc-KLGP-doxorubicin, for which the “% Metabolites released after 3 h (TOP 5 nM)” value in series [1] is 31% and 31 ± 5%. The “% Metabolites released after 5 h” value in [2] (5 h at 37° C., 50 μM compound) is given as 39 ± 13%. The “activation … (in words)” value in [2] is “mainly GP-Dox is detected”. For the same molecule, in series [5], the “cleavage by CD10 (in words)” value is given as “not or very slightly activated”, the “% Metabolites released after 3 h (CD10 10 nM)” value was under 5% and the “CD10 10 nM (cleavage +/−)” value is recorded as “−* (*less than 5% of metabolites detected)”.

As to PhAc-TSGP-doxorubicin, the “% Metabolites released after 3 h (TOP 5 nM)” value in series [1] is 38% and 38 ± 2%. In series [2] (5 h at 37° C., 50 μM compound), the “% Metabolites released after 5 h” value is 35 ± 18%. Further, in [2], the “activation … (in words)” value is “mainly GP-Dox is detected”. Besides, in [5], the “cleavage by CD10 (in words)” value is listed as “not or very slightly activated” and the “% Metabolites released after 3 h (CD10 10 nM)” value is 0%.
